Measurements published in patent US4631274A, “Halovinyl cephem compounds” (Fujisawa Pharmceutical Co., Ltd., priority 1984, dated 1986).

Columns and labels:
[1] = Urinary excretion in rats after oral administration; format: in vivo; settings: rat, urine, 20 mg/kg, bioassay, read-out: Urinary recovery in 24 hours (%)
Method: Urine of rats was collected with a urine collector at 0 to 6, and 6 to 24 hours after oral administration of 20 mg/kg of the test antibiotic. The antibiotic levels in the urine samples were bioassayed with the standard solution prepared with M/15 phosphate buffer (pH 7.0) and the urinary recovery in 24 hours was calculated.

in vivo = settings: rat, po, 20 mg/kg
Method: Rats anesthetized with pentobarbital were fixed in supine position, and a polyethylene cannula was inserted into the bile duct. Bile samples were collected at 0 to 3, 3 to 6, and 6 to 24 hours after oral administration of 20 mg/kg of the test antibiotic. The antibiotic levels in the bile samples were bioassayed with the standard solution prepared with M/15 phosphate buffer (pH 7.0) and the biliary recovery in 24 hours were calculated.

Proteus vulgaris 2 = assay: In vitro antibacterial activity, two-fold agar-plate dilution method (MIC); format: cell-based; settings: HI-agar, 37° C., 20 hours, read-out: MIC (minimal inhibitory concentration)
Method: (§1) In vitro antibacterial activity was determined by the two-fold agar-plate dilution method as described below.
(§2) One loopful of an overnight culture of each test strain in Trypticase-soy broth (10^8 viable cells per ml) was streaked on heart infusion agar (HI-agar) containing graded concentrations of representative test compound, and the minimal inhibitory concentration (MIC) was expressed in terms of μg/ml after incubation at 37° C. for 20 hours.

Proteus mirabilis 18 = assay: as above; format: cell-based; settings: HI-agar, 37° C., 20 hours, read-out: MIC (minimal inhibitory concentration)
Method: as §1, §2

dose excreted at 24 h [1]: 51.1% | dose excreted at 24 h (in vivo): 24.2% | MIC (Proteus vulgaris 2): < 0.025 µg/mL | MIC (Proteus mirabilis 18): < 0.025 µg/mL
Structure (SMILES): Nc1nc(/C(=N/OCC(=O)O)C(=O)NC2C(=O)N3C(C(=O)O)=C(/C=C/Cl)CSC23)cs1 (stereo not drawn) [A, 7-[2-Carboxymethoxyimino-2-(2-aminothiazol-4-yl)acetamido]-3-[(E)-2-chlorovinyl]-3-cephem-4-carboxylic acid (syn isomer)]
